Measurements: patent US20130281313A1, “PROGNOSTIC AND/OR PREDICTIVE BIOMARKERS AND BIOLOGICAL APPLICATIONS THEREOF” (INSTITUT GUSTAVE ROUSSY, priority 2010, published 2013)

Key:
Type in all cases: cell-based, human
A549 cells [1] = assay: Intracellular levels of CDDP in cell lysates; settings: 24 h, 25 μM CDDP alone or with PN and/or GSH, normalized to protein content
Protocol: (E,F) Intracellular levels of CDDP (normalized to protein content) in lysates from untransfected A549 cells (D) or A549 cells transfected with a PDXK-targeting siRNA (E), treated for 24 h with 25 μM CDDP alone or in combination with PN and/or GSH. Mean±SEM (n=6). *=p<0.05 (Studen's t test), as compared to untransfected (D) or siUNR transfected (E) cells treated with CDDP only. n.s.=non significant (Student's t test), as compared to cells treated with the same concentration of GSH (D) or to siPDXK-transfected cells treated with CDDP only (E).

[2] = system: TP53 (phospho-Ser15, phospho-Ser46), caspase-3, caspase-9; assay: Immunoblotting of the intrinsic apoptosis pathway; settings: A549 cells, sub-apoptotic (25 μM) CDDP in the presence of PN
Protocol: For the preparation of total protein extracts A549 cells were washed with cold PBS and lysed in a buffer containing 1% NP40, 20 mM HEPES (pH 7.9), 10 mM KCl, 1 mM EDTA, 10% glycerol, 1 mM orthovanadate, 1 mM PMSF, 1 mM dithiothreitol, 10 μg/mL aprotinin, 10 μg/mL leupeptin, and 10 μg/mL pepstatin, according to established protocols {Zermati, 2007}. […]

A549 cells [3] = assay: Quantification of intracellular PN (LC-MS/MS); settings: 24 or 48 h
Protocol: A549 cells were cultured in absence or the presence of 5 mM PN for 24 or 48 h, harvested, washed once in cold PBS and pelleted at 800 G for 10 min. Supernatants were discarded and pellets were dissolved in 500 μL of deionized H2O by vortexing for 1 min followed by sonication for 10 min. Thereafter, lysates were centrifuged at 5,796 G for 10 min and 60 μL of the resulting supernatant were mixed with an equal volume of trichloroacetic acid (TCA). Upon additional centrifugation (5,796 G, 10 min), 50 μL of sample were injected onto the chromatographic column and PN was measured by liquid chromatography with tandem mass spectrometry (LC-MS/MS), as previously described {Johansson, 2010; Midttun, 2009}.

Cc1ncc(CO)c(CO)c1O [PN, pyridoxine]
intracellular accumulation of CDDP (A549 cells [1]): significantly augmented by PN in a PDXK-dependent fashion
activating phosphorylation of TP53 on serines 15 and 46 [2]: an increased activating phosphorylation of TP53 on serines 15 and 46
activation of caspases-3 and -9 [2]: an increased activation of caspases-3 and -9
intracellular PN concentration upon acute addition (A549 cells [3]): increased the intracellular PN concentration
